Test results from patent US20260224658A1, “PRODUCTS AND METHODS FOR THE DIAGNOSIS AND TREATMENT OF P[…]” (priority 2023, published 2026).
Values after ≈ are worked out from the molar mass of the structure shown.

Columns and labels:
Type in all cases: cell-based, Pseudomonas aeruginosa
[1] = system: MPAO1; assay: microbe, parasite or virus in culture; conditions: strain MPAO1; for MIC: Pseudomonas aeruginosa, read-out: MIC, average of triplicates
Description: (§1) MIC experiments were performed using biological triplicates.

[2] = system: PAO1; assay: microbe, parasite or virus in culture; conditions: strain PAO1; for MIC: Pseudomonas aeruginosa, read-out: MIC, average of triplicates
Description: as §1

[3] = system: MPAO1-ΔmutS; assay: MIC, microbroth dilution assay; conditions: for MIC: Pseudomonas aeruginosa, read-out: MIC, average of triplicates
Description: as §1

[4] = system: MPAO1-ΔmutL; assay: MIC, microbroth dilution assay; conditions: for MIC: Pseudomonas aeruginosa, read-out: MIC, average of triplicates
Description: as §1

[5] = system: MPAO1-ΔmutS; assay: In vitro adaptive evolution (serial passaging) with MIC determination; conditions: for MIC: Pseudomonas aeruginosa
Description: (§2) MICs were determined via microbroth dilution assay in 96-well culture plates with 2-fold serial dilutions of tested antibiotic in Mueller-Hinton (cation-adjusted) broth, inoculated with 50 μL of 2.75×10^5 CFU/mL of each bacterial strain and incubated at 37° C., 200 rpm for 24 hours. MIC experiments were performed using biological triplicates.
(§3) Serial passaging of bacterial strains was performed in 96-well culture plates with 2-fold serial dilutions of antibiotic in MH broth, inoculated with 50 μL 2.75×10^5 CFU/mL of each strain and incubated at 37° C., 200 rpm for 24 hours. […] The bacteria were then serially passaged in the same antibiotic and MIC determined for all antibiotics (aztreonam, ciprofloxacin, D-CONGA, D-CONGA-Q7, polymyxin B). See Antimicrobial susceptibility testing section. The bacteria were serially passaged a total of 10 times.
(§4) All resistance acquisition data was analyzed in units of fold-change to normalize for differences in starting MIC across strains. Fold-change in MIC data for all strains and treatment groups was natural log-transformed and simple linear regression was performed considering each replicate fold-change value as an individual point. Slope, standard error of slope, and total number of values of each treatment group of interest were analyzed via unpaired t-test (ΔmutS vs WT) or ordinary one-way ANOVA (cross-resistance acquisition of ΔmutS+AB vs −AB vs WT), and α-values were corrected for multiple comparisons using the Bonferroni method. Differences in estimated mutation rate across treatment groups were determined via ordinary one-way ANOVA (Brown-Forsythe test). For all statistical tests, p<0.05 was considered significant. All figures were created and statistical tests were done using GraphPad Prism 9.3.1.

[6] = system: MPAO1; assay: as above; conditions: for MIC: Pseudomonas aeruginosa
Description: as §2, §3, §4

[7] = system: MPAO1-ΔmutL; assay: as above
Description: as §2, §3, §4

[8] = MPAO1-ΔmutS evolved in AZ + COL
[9] = MPAO1-ΔmutS evolved in AZ + D-CONGA
[10] = MPAO1-ΔmutS evolved in AZ + D-CONGA-Q7
[11] = MPAO1-ΔmutS evolved in D-CONGA-Q7
[12] = MPAO1-ΔmutS passaged with No Antibiotic (Table 4)
[13] = MPAO1-ΔmutS passaged with No Antibiotic (Table 8)
[14] = MPAO1-ΔmutL evolved in Chl + Str
[15] = MPAO1-ΔmutL passaged with No Antibiotic
[16] = MPAO1 evolved in AZ + D-CONGA-Q7
[17] = MPAO1 passaged with No Antibiotic (Table 4)
[18] = MPAO1 passaged with No Antibiotic (Table 8)

O=C(N[C@H](CO)[C@H](O)c1ccc([N+](=O)[O-])cc1)C(Cl)Cl [Chloramphenicol]
MIC [1]: ≥ 400 µg/mL
MIC [2]: 400 µg/mL (≈ 1240 µM)
MIC [3]: ≥ 400 µg/mL
susceptibility of the strains before evolution (summary of Table 3) ([3]; wild type and mutS-deficient MPAO1): anticipated intrinsic resistance
MIC [4]: 400 µg/mL (≈ 1240 µM)
cross-resistance to antibiotics induced by treatment ([5]; MPAO1-ΔmutS evolved in the named drug): induced cross-resistance to antibiotics in a different class such as ciprofloxacin
cross-resistance induced by treatment ([6]; antibiotic-treated wild type MPAO1): no cross resistance developed

O=C(O)c1cn(C2CC2)c2cc(N3CCNCC3)c(F)cc2c1=O [Ciprofloxacin]
MIC [1]: 0.5 µg/mL (≈ 1.51 µM)
MIC [2]: 0.25 µg/mL (≈ 0.754 µM)
MIC [3]: 1 µg/mL (≈ 3.02 µM)
MIC [4]: 0.3 µg/mL (≈ 0.905 µM)
MIC ([5]; read-out: Average MIC at end point, MPAO1-ΔmutS evolved in AZ): 4 µg/mL (≈ 12.1 µM)
MIC ([5]; read-out: Average MIC at end point, MPAO1-ΔmutS evolved in AZ + COL): 2 µg/mL
MIC ([5]; read-out: Average MIC at end point, MPAO1-ΔmutS evolved in AZ + D-CONGA): 0.8 µg/mL
MIC ([5]; read-out: Average MIC at end point, MPAO1-ΔmutS evolved in AZ + D-CONGA-Q7): 0.7 µg/mL
MIC ([5]; read-out: Average MIC at end point, MPAO1-ΔmutS evolved in Chl): 8 µg/mL (≈ 24.1 µM)
MIC ([6]; read-out: Average MIC at end point, MPAO1 evolved in AZ): 0.25 µg/mL (≈ 0.754 µM)
MIC ([6]; read-out: Average MIC at end point, MPAO1 evolved in AZ + COL): 2 µg/mL
MIC ([6]; read-out: Average MIC at end point, MPAO1 evolved in AZ + D-CONGA): 0.7 µg/mL
MIC ([6]; read-out: Average MIC at end point, MPAO1 evolved in AZ + D-CONGA-Q7): 0.8 µg/mL
MIC ([6]; read-out: Average MIC at end point, MPAO1 evolved in COL): 2 µg/mL (≈ 6.04 µM)
MIC ([6]; read-out: Average MIC at end point, MPAO1 evolved in Chl): 1 µg/mL (≈ 3.02 µM)
MIC ([6]; read-out: Average MIC at end point, MPAO1 evolved in Chl + Str): 2 µg/mL
MIC ([6]; read-out: Average MIC at end point, MPAO1 evolved in D-CONGA): 1 µg/mL (≈ 3.02 µM)
MIC ([6]; read-out: Average MIC at end point, MPAO1 evolved in D-CONGA-Q7): 0.75 µg/mL (≈ 2.26 µM)
MIC ([6]; read-out: Average MIC at end point, MPAO1 passaged with No Antibiotic (Table 4)): 2 µg/mL (≈ 6.04 µM)
MIC ([6]; read-out: Average MIC at end point, MPAO1 passaged with No Antibiotic (Table 8)): 0.8 µg/mL (≈ 2.41 µM)

Polymyxin B
MIC, average of triplicates [1]: 2 µg/mL
MIC, average of triplicates [2]: 2 µg/mL
MIC, average of triplicates ([3]; strain ΔmutS): 2 µg/mL
MIC, average of triplicates ([4]; strain ΔmutL): 3 µg/mL
Average MIC at end point ([5]; MPAO1-ΔmutS evolved in AZ): 2 µg/mL
fold-change relative to starting MIC before treatment ([5]; MPAO1-ΔmutS evolved in AZ): 1
Average MIC at end point [5, 8]: 2 µg/mL
fold-change relative to starting MIC before treatment [5, 8]: 1
Average MIC at end point [5, 9]: 2 µg/mL
fold-change relative to starting MIC before treatment [5, 9]: 1
Average MIC at end point [5, 10]: 2 µg/mL
fold-change relative to starting MIC before treatment [5, 10]: 1
Average MIC at end point ([5]; MPAO1-ΔmutS evolved in COL): 27 µg/mL
fold-change relative to starting MIC before treatment ([5]; MPAO1-ΔmutS evolved in COL): 8
Average MIC at end point ([5]; MPAO1-ΔmutS evolved in Chl): 2 µg/mL
fold-change relative to starting MIC before treatment ([5]; MPAO1-ΔmutS evolved in Chl): 1
Average MIC at end point ([5]; MPAO1-ΔmutS evolved in D-CONGA): 3 µg/mL
fold-change relative to starting MIC before treatment ([5]; MPAO1-ΔmutS evolved in D-CONGA): 1.33
Average MIC at end point [5, 11]: 4 µg/mL
fold-change relative to starting MIC before treatment [5, 11]: 2
Average MIC at end point [5, 12]: 2 µg/mL
fold-change relative to starting MIC before treatment [5, 12]: 1
Average MIC at end point [5, 13]: 2 µg/mL
fold-change relative to starting MIC before treatment [5, 13]: 1
Average MIC at end point [7, 14]: 0.5 µg/mL
fold-change relative to starting MIC before treatment [7, 14]: 0.25
Average MIC at end point [7, 15]: 2 µg/mL
fold-change relative to starting MIC before treatment [7, 15]: 0.6
Average MIC at end point ([6]; MPAO1 evolved in AZ): 3 µg/mL
fold-change relative to starting MIC before treatment ([6]; MPAO1 evolved in AZ): 1.3
Average MIC at end point ([6]; MPAO1 evolved in AZ + COL): 2 µg/mL
fold-change relative to starting MIC before treatment ([6]; MPAO1 evolved in AZ + COL): 1
Average MIC at end point ([6]; MPAO1 evolved in AZ + D-CONGA): 2 µg/mL
fold-change relative to starting MIC before treatment ([6]; MPAO1 evolved in AZ + D-CONGA): 1
Average MIC at end point [6, 16]: 2 µg/mL
fold-change relative to starting MIC before treatment [6, 16]: 1
Average MIC at end point ([6]; MPAO1 evolved in COL): 2 µg/mL
fold-change relative to starting MIC before treatment ([6]; MPAO1 evolved in COL): 1
Average MIC at end point ([6]; MPAO1 evolved in Chl): 2 µg/mL
fold-change relative to starting MIC before treatment ([6]; MPAO1 evolved in Chl): 1
Average MIC at end point ([6]; MPAO1 evolved in D-CONGA): 4 µg/mL
fold-change relative to starting MIC before treatment ([6]; MPAO1 evolved in D-CONGA): 2.4
Average MIC at end point ([6]; MPAO1 evolved in D-CONGA-Q7): 2 µg/mL
fold-change relative to starting MIC before treatment ([6]; MPAO1 evolved in D-CONGA-Q7): 1
Average MIC at end point [6, 17]: 1 (1) μg/mL
fold-change relative to starting MIC before treatment [6, 17]: 1 (1)
Average MIC at end point [6, 18]: 2 µg/mL
fold-change relative to starting MIC before treatment [6, 18]: 1
